Converted amounts (≈) assume the structure as drawn.
Key:
HepG2 = assay: cells; details: Homo sapiens, HepG2, 72 h
Description: Cytotoxicity against human HepG2 cells assessed as inhibition of cell growth incubated for 72 hrs by MTS assay

MCF7 = assay: cells; details: Homo sapiens, MCF7, 72 h
Description: Cytotoxicity against human MCF7 cells assessed as inhibition of cell growth incubated for 72 hrs by MTS assay

[1] = molecular target: T1, DNA topoisomerase 2-alpha (Homo sapiens, UniProt P11388); assay: Inhibition of human DNA topoisomerase 2 alpha assessed as relaxation of supercoiled plasmid pNO1 DNA incubated for 30 mins by fluorescence based analysis
DNA topoisomerase 1 = molecular target: T2, DNA topoisomerase 1 (Homo sapiens, UniProt P11387); assay: Inhibition of human DNA Topoisomerase 1 assessed as relaxation of supercoiled plasmid pBR322 DNA incubated for 30 mins by ethidium bromide staining based agarose gel electrophoresis
T2 sequence (P11387 whole entry): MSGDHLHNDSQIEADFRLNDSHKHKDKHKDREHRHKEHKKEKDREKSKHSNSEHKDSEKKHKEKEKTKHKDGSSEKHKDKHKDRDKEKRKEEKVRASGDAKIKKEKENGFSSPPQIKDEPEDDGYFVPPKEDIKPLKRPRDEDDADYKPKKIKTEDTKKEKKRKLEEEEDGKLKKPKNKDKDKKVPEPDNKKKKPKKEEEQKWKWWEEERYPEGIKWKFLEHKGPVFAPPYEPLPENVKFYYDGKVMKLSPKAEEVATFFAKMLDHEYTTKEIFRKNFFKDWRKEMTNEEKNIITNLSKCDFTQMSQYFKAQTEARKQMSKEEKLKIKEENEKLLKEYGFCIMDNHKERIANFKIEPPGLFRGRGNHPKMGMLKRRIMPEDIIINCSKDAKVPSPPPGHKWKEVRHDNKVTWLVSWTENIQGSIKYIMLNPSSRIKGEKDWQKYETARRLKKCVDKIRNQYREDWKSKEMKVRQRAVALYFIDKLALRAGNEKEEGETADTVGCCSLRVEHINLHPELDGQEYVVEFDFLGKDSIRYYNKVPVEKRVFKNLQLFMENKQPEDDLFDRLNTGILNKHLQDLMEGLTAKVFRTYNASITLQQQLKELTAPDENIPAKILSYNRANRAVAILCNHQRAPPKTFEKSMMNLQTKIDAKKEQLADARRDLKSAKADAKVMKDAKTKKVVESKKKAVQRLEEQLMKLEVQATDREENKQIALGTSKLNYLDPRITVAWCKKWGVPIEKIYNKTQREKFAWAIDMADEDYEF

[2] = Metabolic stability in rat liver S9 fraction assessed as half life at 100 uM measured upto 120 mins in presence of NADPH by HPLC analysis; assay type: ADME, subcellular
[3] = Thermodynamic aqueous solubility of compound in PBS buffer at pH 7.4 at 25 degreeC measured after 24 hrs by UPLC analysis; assay type: physicochemical; details: read-out: Therm_solubility
[4] = Cytotoxicity against HEK293 cells assessed as inhibition of cell growth incubated for 72 hrs by MTS assay; assay type: toxicity, cell-based; details: human
[5] = Selectivity index, ratio of IC50 for HEK293 cells to IC50 for human MCF7 cells; assay type: toxicity; details: HEK293 cells versus MCF7 cells, read-out: Ratio IC50
[6] = molecular target: T1, DNA topoisomerase 2-alpha; assay: Inhibition of human DNA topoisomerase 2 alpha assessed as ATP hydrolysis measured for 30 mins by absorbance based assay
[7] = Selectivity index, ratio of IC50 for HEK293 cells to IC50 for human HepG2 cells; assay type: toxicity; details: HEK293 cells versus HepG2 cells, read-out: Ratio IC50
K562 = assay: Cytotoxicity against human K562 cells assessed as reduction in cell viability at 10 uM by MTT assay; assay type: functional, cell-based

T1 sequence (P11388 whole entry): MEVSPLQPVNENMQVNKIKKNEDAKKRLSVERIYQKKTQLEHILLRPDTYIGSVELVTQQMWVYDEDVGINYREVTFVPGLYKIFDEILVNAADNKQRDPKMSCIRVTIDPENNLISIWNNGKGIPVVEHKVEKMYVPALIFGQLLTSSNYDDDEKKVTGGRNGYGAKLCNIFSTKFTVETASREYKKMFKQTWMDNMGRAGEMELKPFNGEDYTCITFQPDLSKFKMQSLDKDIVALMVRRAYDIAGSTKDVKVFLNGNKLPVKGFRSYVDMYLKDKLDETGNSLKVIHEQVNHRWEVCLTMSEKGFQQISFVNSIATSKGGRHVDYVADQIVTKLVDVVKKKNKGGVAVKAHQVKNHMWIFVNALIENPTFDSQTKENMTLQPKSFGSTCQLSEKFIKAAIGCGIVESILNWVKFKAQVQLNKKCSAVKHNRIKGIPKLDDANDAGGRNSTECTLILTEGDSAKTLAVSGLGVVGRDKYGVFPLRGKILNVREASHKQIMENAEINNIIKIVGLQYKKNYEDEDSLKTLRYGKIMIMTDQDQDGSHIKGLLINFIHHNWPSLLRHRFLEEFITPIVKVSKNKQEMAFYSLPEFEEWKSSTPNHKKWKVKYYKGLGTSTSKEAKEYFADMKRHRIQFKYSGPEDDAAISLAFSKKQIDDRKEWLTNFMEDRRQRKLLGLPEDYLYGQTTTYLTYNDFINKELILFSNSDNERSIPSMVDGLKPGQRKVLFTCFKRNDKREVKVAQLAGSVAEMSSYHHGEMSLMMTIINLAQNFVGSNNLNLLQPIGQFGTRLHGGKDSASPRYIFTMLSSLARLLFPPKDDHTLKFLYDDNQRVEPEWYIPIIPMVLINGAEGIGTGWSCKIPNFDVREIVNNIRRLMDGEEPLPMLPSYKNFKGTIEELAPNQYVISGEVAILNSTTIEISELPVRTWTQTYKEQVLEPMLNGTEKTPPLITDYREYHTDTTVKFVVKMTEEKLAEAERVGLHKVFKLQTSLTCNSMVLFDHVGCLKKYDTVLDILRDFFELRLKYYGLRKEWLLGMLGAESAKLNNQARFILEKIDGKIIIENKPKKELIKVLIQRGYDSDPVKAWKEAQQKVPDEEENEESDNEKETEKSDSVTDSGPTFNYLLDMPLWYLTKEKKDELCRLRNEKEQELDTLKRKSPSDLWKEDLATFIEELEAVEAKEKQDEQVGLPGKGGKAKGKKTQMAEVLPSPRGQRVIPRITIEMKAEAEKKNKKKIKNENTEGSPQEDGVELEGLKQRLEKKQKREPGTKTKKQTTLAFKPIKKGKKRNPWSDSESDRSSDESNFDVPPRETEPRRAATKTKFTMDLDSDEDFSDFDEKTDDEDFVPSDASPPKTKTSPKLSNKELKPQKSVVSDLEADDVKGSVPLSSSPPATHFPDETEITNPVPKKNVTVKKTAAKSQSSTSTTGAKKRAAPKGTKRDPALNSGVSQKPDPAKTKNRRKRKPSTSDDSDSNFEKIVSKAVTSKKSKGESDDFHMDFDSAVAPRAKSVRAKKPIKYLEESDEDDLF

| Compound | IC50 [1] | further results |
| --- | --- | --- |
| Cc1[nH]c(C(=O)Nc2ccc(C(=O)NCC(=O)O)cc2OC(C)C)c(Cl)c1Cl | 7.2 µM | IC50 (HepG2): > 50 µM; IC50 (MCF7): > 50 µM |
| COc1cc(NS(C)(=O)=O)ccc1Nc1c2ccccc2nc2ccccc12 [AMSACRINE] | – | IC50 (DNA topoisomerase 1): 74 µM |
| COc1ccc(NC(=O)c2[nH]c(C)c(Cl)c2Cl)c(C(=O)NCc2ccc(C(=O)O)cc2)c1 | 67 µM | half-life at 100 µM [2]: > 5 h |
| Cc1[nH]c(C(=O)Nc2ccccc2OCc2cccc(C(=O)NCCN)c2)cc1F | > 100 µM | – |
| COC(=O)[C@@H](C)NC(=O)c1ccc(NC(=O)c2[nH]c(C)c(Cl)c2Cl)c(OC2CCNCC2)c1 | 45 µM | IC50 (HepG2): 9.8 µM; IC50 (MCF7): 8.7 µM |
| Cc1[nH]c(C(=O)Nc2ccc(C(=O)NC3CCCNC3)cc2OC(C)C)c(Cl)c1Cl.Cl (centres undefined) | 1.3 µM | solubility thermodynamic at 24 h [3]: 4.6 µM; half-life at 100 µM [2]: > 5 h |
| CCNC(=O)Nc1ccc(OC2CCNCC2)c(NC(=O)c2[nH]c(C)c(Cl)c2Cl)c1 | 38 µM | IC50 (HepG2): 38 µM; IC50 (MCF7): 33 µM |
| C[C@]12CC[C@H]3[C@@H](CCC4=CC(=O)CC[C@@]43C)[C@@H]1CC[C@@H]2O [TESTOSTERONE] | – | half-life at 100 µM [2]: 0.142 h |
| Cc1[nH]c(C(=O)Nc2ccc(C(N)=O)cc2N2CCOCC2)c(Cl)c1Cl | > 100 µM | – |
| NCCNC(=O)c1cccc(COc2ccccc2NC(=O)c2cc([N+](=O)[O-])c[nH]2)c1 | > 100 µM | – |
| Cc1[nH]c(C(=O)Nc2ccccc2OCc2cccc(C(=O)NCCN)c2)cc1Cl | 35 µM | – |
| CCc1cnc(C(=O)Nc2ccc(C(N)=O)cc2OC(C)C)[nH]1 | > 100 µM | – |
| NCCNC(=O)c1cccc(COc2ccccc2NC(=O)c2cc(Br)c(Br)[nH]2)c1 | 45 µM | – |
| Cc1[nH]c(C(=O)Nc2ccc(C(=O)N[C@@H](Cc3ccccc3)C(=O)O)cc2OC(C)C)c(Cl)c1Cl | 5 µM | IC50 (HepG2): > 50 µM; IC50 (MCF7): > 50 µM |
| Cc1[nH]c(C(=O)Nc2ccc(O)cc2C(=O)NCc2ccc(C(=O)O)cc2)c(Cl)c1Cl | 24 µM | – |
| Cc1[nH]c(C(=O)Nc2ccccc2OC2CCNCC2)c(Cl)c1Cl.Cl | – | half-life at 100 µM [2]: > 5 h |
| Cc1[nH]c(C(=O)Nc2cc(C(=O)O)ccc2OC2CCNCC2)c(Cl)c1Cl | > 100 µM | – |
| O=C(O)c1ccc(CCNC(=O)c2cc(O)ccc2NC(=O)c2cc(Br)c(Br)[nH]2)cc1 | 22 µM | – |
| Cc1[nH]c(C(=O)Nc2ccccc2OCc2cccc(C(=O)O)c2)c(Cl)c1Cl | 29 µM | solubility thermodynamic at 24 h [3]: 2.1 µM (≈ 0.88 µg/mL) |
| Cc1[nH]c(C(=O)Nc2ccc(C(=O)N3CCCC(N)C3)cc2OC(C)C)c(Cl)c1Cl (centres undefined) | 32 µM | – |
| NS(=O)(=O)c1ccc(CNC(=O)c2cc(O)ccc2NC(=O)c2cc(Br)c(Br)[nH]2)cc1 | > 100 µM | – |
| Cc1[nH]c(C(=O)Nc2ccc(C(N)=O)cc2OCc2cccc(C(=O)NCC(=O)O)c2)c(Cl)c1Cl | 3.5 µM | – |
| Cc1[nH]c(C(=O)Nc2ccc(C(=O)N3CCNCC3)cc2OC(C)C)c(Cl)c1Cl | > 100 µM | – |
| Cc1[nH]c(C(=O)Nc2ccc(C(N)=O)cc2N2CCOC(C)C2)c(Cl)c1Cl (centres undefined) | > 100 µM | – |
| Cc1[nH]c(C(=O)Nc2ccc(C(=O)NCC3CCNCC3)cc2OC(C)C)c(Cl)c1Cl.Cl | 2.9 µM | solubility thermodynamic at 24 h [3]: 15 µM |
| CCc1[nH]c(C(=O)Nc2ccccc2OCc2cccc(C(=O)NCCN)c2)nc1Cl | 37 µM | – |

| Compound | IC50 [1] | further results |
| --- | --- | --- |
| NCCNC(=O)c1cccc(COc2ccccc2NC(=O)c2cc(Cl)c(Cl)[nH]2)c1 | 76 µM | – |
| CCc1nc2nc(Nc3ccc4nc(OCCN5CCOCC5)ccc4c3)nc(NC(C)(C)C)c2[nH]1 | 0.73 µM | IC50 (HepG2): 11 µM; IC50 (MCF7): 7.7 µM |
| Cc1[nH]c(C(=O)Nc2ccc(C(N)=O)cc2OCc2cccc(C(=O)NCCN)c2)c(Cl)c1Cl.Cl | 1 µM | half-life at 100 µM [2]: > 5 h |
| Cc1[nH]c(C(=O)Nc2ccc(C(=O)NC3CCNCC3)cc2OC(C)C)c(Cl)c1Cl | 4.5 µM | – |
| Cc1[nH]c(C(=O)Nc2ccccc2OCc2cccc(C(=O)NCCN)c2)c(Cl)c1Cl.Cl | 3 µM | IC50 at 72 h [4]: 27 µM; selectivity ratio [5]: 3; IC50 (HepG2): 15 µM; solubility thermodynamic at 24 h [3]: 18 µM; IC50 [6]: 2.3 µM; half-life at 100 µM [2]: > 5 h; IC50 (MCF7): 9 µM; selectivity ratio [7]: 1.8 |
| Cc1[nH]c(C(=O)Nc2ccccc2OCc2cccc(C(N)=O)c2)c(Cl)c1Cl | > 100 µM | – |
| Cc1[nH]c(C(=O)Nc2ccc(C(N)=O)cc2OCC(=O)N2CCCC(NC(=O)OC(C)(C)C)C2)c(Cl)c1Cl (centres undefined) | > 100 µM | – |
| Cc1[nH]c(C(=O)Nc2ccccc2OCc2cccc(C(=O)NC3CCNC3)c2)c(Cl)c1Cl.Cl (centres undefined) | 6.3 µM | solubility thermodynamic at 24 h [3]: 15 µM; IC50 (K562): 0.57 µM |
| Cc1[nH]c(C(=O)Nc2ccc(C(N)=O)cc2OCC(=O)N2CCCC(N)C2)c(Cl)c1Cl (centres undefined) | 8.3 µM | – |
| Cc1[nH]c(C(=O)Nc2ccc(C(N)=O)cc2NC(C)C)c(Cl)c1Cl | 13 µM | – |
| Cc1[nH]c(C(=O)Nc2ccccc2OCc2cccc(C(=O)N3CCCC(N)C3)c2)c(Cl)c1Cl (centres undefined) | 27 µM | IC50 at 72 h [4]: 1.7 µM; selectivity ratio [5]: 1.3; IC50 (HepG2): 1.9 µM; IC50 (K562): 0.77 µM; IC50 (MCF7): 1.3 µM; selectivity ratio [7]: 0.9 |
| Cc1[nH]c(C(=O)Nc2ccc(C(N)=O)cc2OC2CCNCC2)c(Cl)c1Cl.Cl | – | half-life at 100 µM [2]: > 5 h |
| Cc1[nH]c(C(=O)Nc2cc(C(N)=O)ccc2OCCN)c(Cl)c1Cl | 18 µM | – |
| CCc1[nH]c(C(=O)Nc2ccc(C(N)=O)cc2OC(C)C)nc1Cl | 6.6 µM | half-life at 100 µM [2]: > 5 h |
| Cc1[nH]c(C(=O)Nc2cc(C(=O)O)ccc2OC2CCN(C(=O)OC(C)(C)C)CC2)c(Cl)c1Cl | 38 µM | – |
| Cc1[nH]c(C(=O)Nc2ccc(C(N)=O)cc2NCCN)c(Cl)c1Cl.Cl | > 100 µM | half-life at 100 µM [2]: > 5 h |
| Cc1[nH]c(C(=O)Nc2cc(C(N)=O)ccc2OC2CCNC2)c(Cl)c1Cl (centres undefined) | 32 µM | – |
| Cc1[nH]c(C(=O)Nc2cc(C(N)=O)ccc2OC(C)C)c(Cl)c1Cl | > 100 µM | – |
| Cc1[nH]c(C(=O)Nc2ccccc2OCc2cccc(C(=O)NC3CCCNC3)c2)c(Cl)c1Cl.Cl (centres undefined) | 7.7 µM | IC50 at 72 h [4]: 2.1 µM; selectivity ratio [5]: 14; IC50 (HepG2): 0.13 µM; solubility thermodynamic at 24 h [3]: 10 µM; IC50 (K562): 0.19 µM; half-life at 100 µM [2]: > 5 h; IC50 (MCF7): 0.15 µM; selectivity ratio [7]: 16 |
| Cc1[nH]c(C(=O)Nc2ccccc2OC2CCN(C(=O)OC(C)(C)C)CC2)c(Cl)c1Cl | > 100 µM | – |
| COc1ccc(NC(=O)c2cc(Br)c(Br)[nH]2)c(C(=O)NCc2ccc(C(=O)O)cc2)c1 | 39 µM | half-life at 100 µM [2]: 4.83 h |
| Cc1[nH]c(C(=O)Nc2ccccc2OC2CCN(C(=O)OC(C)(C)C)C2)c(Cl)c1Cl (centres undefined) | > 100 µM | – |
| Cc1ccc(C(=O)Nc2ccccc2OCc2cccc(C(=O)NCCN)c2)[nH]1 | > 100 µM | – |
| COc1ccc(NC(=O)c2[nH]c(C)c(Br)c2Br)c(C(=O)NCCc2ccc(C(=O)O)cc2)c1 | 25 µM | – |
| Cc1[nH]c(C(=O)Nc2ccc(C(N)=O)cc2OCc2cccc(C(=O)NCCC(=O)O)c2)c(Cl)c1Cl | 3.4 µM | – |
